Assay results taken from patent publication US20030130308A1, “Drugs for spinal anesthesia” (priority 2001, published 2003).
“Also recorded” adds a separate entry of the source. Counter-ions that a name gives are not always drawn. Marks after values point to notes of the source that are not given here.

Experiments:
rats [1] = test: Withdrawal response to pinch with forceps at the hindpaw after intrathecal injection; assay type: in vivo; settings: rat
Procedure: (§1) Rats were tested before 15 minutes through 240 minutes after intrathecal injection of 5 nmoles (in 10 μl) of 6-[2-(1(2)H-tetrazole-5-yl)ethyl]decahydroisoquinolone-3-carboxylic acid. Sensory function was tested at the hindpaw using withdrawal response to pinprick and withdrawal to pinch with a sharp forceps. Motor performance (ambulation, the placing reflex and Rotarod time), blood pressure and heart rate was also evaluated. Some tests were repeated the next day. Responses after 6-[2-(1(2)H-tetrazole-5-yl)ethyl]decahydroisoquinolone-3-carboxylic acid were compared to injection of 40 μl of bupivacaine, 0.75%. Pinprick responses at the forepaw, chest, abdomen, hindleg and hindpaw were also examined after intrathecal 6-[2-(1(2)H-tetrazole-5-yl)ethyl]decahydroisoquinolone-3-carboxylic acid.
(§2) Rats were anesthetized with halothane. The lumbar region was shaved, prepared with povidone-iodine, made kyphotic and incised 2 to 3 cm longitudinally in the midline at the level of the iliac crests. The space between the 5th and 6th lumbar vertebrae was punctured with 23G hypodermic needle and a 32G PU catheter (10 cm length, OD 0.0107 inches and ID 0.005 inches) reinforced with a Teflon coated stainless steel stylet (0.003 inches) was advanced through the needle cranially. The needle and the stylet were removed and the catheter withdrawn so that 6.5-7 cm extended outside of the lumbar masculature. The catheter was fixed to the fascia, sutured, inserted into an 8 cm length of PE-10 tubing and secured with glue covered with epoxy. The catheter was tunneled under the skin to the cervical region, flushed with saline and sealed with a cautery pen. The dead space of the catheter was 4.5 to 5 μl. The skin was closed and the rat was allowed to recover from anesthesia for 2-3 days.
First, the withdrawal response to pinprick was tested on each hindpaw. A 5 mm long tip of a safety pin attached to a von Frey filament (520 mN) was applied once to the plantar aspect of each hindpaw. Either a withdrawal response or a reaction occurred (1=positive response) or no withdrawal (0=no response). The sum of the scores (0, 1 or 2) for each rat was recorded. If no response or reaction was elicited by pinprick, a serrated dissecting forceps was used to pinch the skin of the plantar region for 2-3 sec. Again, withdrawal or reaction was considered a positive response (score=1) and the absence of both a negative test (score=0). […] Because the response to pinch was quite vigorous and rats were subjected to repeated tests in a single day, only rats unresponsive to pinprick were tested for pinch. If pinprick evoked a response, pinch was designated as positive also. The sum of the scores after pinch (0, 1 or 2) was recorded.
(§3) The dose and volume of drugs injected intrathecally were determined from the dose required to produce hindlimb sensory and motor loss in preliminary experiments. Bupivacaine HCl (0.75% in 8.25% dextrose for spinal injection) was purchased from Abbott Laboratories (Chicago, Ill.). The intrathecal injection volume was 40 μl. The compound was dissolved in 10% dextrose and water. The injection volume was 1 ul. All intrathecal drug injections were followed by a flush of 10 μl preservative-free saline.

rats [2] = test: Ambulation score after intrathecal injection; assay type: in vivo; settings: rat; for Ambulation Score: median (range)
Procedure: as §1, §2
Rats were trained over a two-day period. Training began by placing the rat on a Rotarod (Stoelting, Wood Dale, Ill.) that was fixed for three minutes. Then, three series of trials separated by 2-3 hours were performed. During each trial, the rat was placed on the Rotarod accelerating for the first 20 s then at a constant rate of approximately 5 rpm, until a 180 s cut off time. If the rat fell at any time during the initial trial, the trial was repeated. Each rat was allowed three attempts per trial. On the second day, the same procedure was repeated, though acceleration was sustained for 120 s to approximately 12 rpm, with a 150 second cut off time. On day 3, the test day, rats are again placed on the Rotarod and accelerated for 120 seconds to 12 rpm with the cutoff time of 150 seconds. Each rat was permitted 4 attempts at 15 minute intervals. Those successful in 2 of the 4 attempts continued in the protocol, and the average of the 4 attempts was considered the baseline (pre). After a two-hour period, the test drug was administered and rats were examined once on the Rotarod at 30, 60, 90, 120, 180, and 240 minutes. […] Then the placing reflex was tested. Rats were placed on a table and the dorsum of either hindpaw was drawn across the edge of the table; this elicits a lifting of the paw onto the surface of the table (2=normal; 1=delay of 1-2 sec.; 0=more than 2 sec.). This test was performed 3 times for each hindlimb after each ambulation test. The sum of the three trials on both paws were recorded ([…]).
as §3

rats [3] = test: Withdrawal response to pinprick after infiltration into the left hind paw; assay type: in vivo; settings: rat
Procedure: Withdrawal response to pinprick were also tested before and after infiltration of (50 nmoles in 100 μl) of 6-[2-(1(2)H-tetrazole-5-yl)ethyl]decahydroisoquinolone-3-carboxylic acid into the left hind paw (n=5). Responses were recorded before injection of 6-[2-(1(2)H-tetrazole-5-yl)ethyl]decahydroisoquinolone-3-carboxylic acid and at 15, 30 and 60 minutes after injection. This test was not blinded.

[4] = local infiltration of the drug in the incision; previously reported by this inventor; cited from earlier work
rats [5] = test: Segmental pinprick testing at hindpaw, hindleg, abdomen, chest and forepaw after intrathecal injection; assay type: in vivo; settings: rat
Procedure: as §1
In a separate group of rats (n=5), the response to pinprick was tested once on the left hindpaw, the left hindleg, the lower abdomen, the chest and the left forepaw in rats injected with intrathecal 6-[2-(1(2)H-tetrazole-5-yl)ethyl]decahydroisoquinolone-3-carboxylic acid. Withdrawal, muscle contraction, or attempted escape reaction to pinprick was considered a positive test whereas their absence was considered a negative response. This test was not blinded.

[6] = bupivacaine 0.75% 40 μl intrathecal
[7] = 5 nmoles intrathecal, from 15 minutes

CCCCN1CCCCC1C(=O)Nc1c(C)cccc1C (stereo not shown) [Bupivacaine, Bupivacaine HCl]
time of full recovery of response to pinch (rats [1]; [6]): 30 min | response to pinch vs Pre (rats [1]; bupivacaine 0.75% 40 μl intrathecal, 15 minutes after injection): reduced | Ambulation Score (rats [2]; Bupivacaine 0.75% 40 μl IT, n=8, 15 min): 0 (0-0)* | Ambulation Score (rats [2]; Bupivacaine 0.75% 40 μl IT, n=8, 30 min): 1 (0-2)* | Ambulation Score (rats [2]; Bupivacaine 0.75% 40 μl IT, n=8, 60 min): 2 (1-2) | Ambulation Score (rats [2]; Bupivacaine 0.75% 40 μl IT, n=8, 90 min): 2 (1-2) | Ambulation Score (rats [2]; Bupivacaine 0.75% 40 μl IT, n=8, 120 min): 2 (2-2) | Ambulation Score (rats [2]; Bupivacaine 0.75% 40 μl IT, n=8, 180 min): 2 (2-2) | Ambulation Score (rats [2]; Bupivacaine 0.75% 40 μl IT, n=8, 240 min): 2 (2-2) | Ambulation Score (rats [2]; Bupivacaine 0.75% 40 μl IT, n=8, 24 hrs): 2 (2-2) | Ambulation Score (rats [2]; Bupivacaine 0.75% 40 μl IT, n=8, Pre (before drug injection)): 2 (2-2) | ambulation decreased for (P<0.05 vs Pre) (rats [2]; [6]): 30 min

O=C(O)C1CC2CC(CCc3nnn[nH]3)CCC2CN1 (stereo not shown) [LY293558, 6-[2-(1(2)H-tetrazole-5-yl)ethyl]decahydroisoquinolone-3-carboxylic acid]
change in withdrawal response to pinprick from baseline (rats [3]; 50 nmoles in 100 μl infiltrated into the hind paw, n=5): no change; also recorded: did not affect | rats withdrawing to pinprick (rats [3]; 50 nmoles in 100 μl into the hind paw, n=5, at 15, 30 and 60 minutes): All five rats withdrew | effect on pain after incision [4]: no effect | greater inhibition of pinch than bupivacaine (P<0.05) through (rats [1]; 5 nmoles intrathecal vs bupivacaine): 4 h | all rats failed to respond to pinch through (P<0.05 vs Pre) (rats [1]; [7]): 90 min | recovery of pinch response the next day (rats [1]; 5 nmoles intrathecal, next day): recovered fully | time by which all rats had recovered ambulation (rats [2]; 5 nmoles intrathecal): ≤ 4 h | ambulation significantly impaired through (P<0.05 vs Pre) (rats [2]; [7]): 90 min | Ambulation Score (rats [2]; LY293558 5 nmoles IT, n=8, 15 min): 0 (0-0)* | Ambulation Score (rats [2]; LY293558 5 nmoles IT, n=8, 240 min): 2 (2-2) | Ambulation Score (rats [2]; LY293558 5 nmoles IT, n=8, 24 hrs): 2 (2-2) | Ambulation Score (rats [2]; LY293558 5 nmoles IT, n=8, Pre (before drug injection)): 2 (2-2) | segmental blockade of the response to pinprick (rats [5]; 5 nmoles intrathecal): present | evidence of sensory block of the forelimb (rats [5]; intrathecal, n=5, not blinded): in only one test at 15 minutes | sensation to pinprick blocked below the chest in all rats through (rats [5]; intrathecal, n=5, not blinded): 90 min | sensation to pinprick blocked in the hindlimb through (rats [5]; intrathecal, n=5, not blinded): 120 min
